Measurements as given in patent US20190090476A1, “MICROEMULSIONS FOR AGRICULTURAL USE” (Florida Chemical Company, Inc., priority 2017, published 2019).
Where two headings read alike, the source gives them in different places.

Tests used:
[1] = HSP distance Ra and relative energy difference RED of solvents versus plant wax HSP values; conditions: for RED 1: RED=Ra 1/Ro; for RED 1 / RED 2: Ro=7.1; for RED 2: RED=Ra 2/Ro
Description: The HSP distance between two molecules, conventionally called Ra, is the measure of how alike they are. The smaller the Ra, the more likely they are to be compatible. A quantity called the relative energy difference (RED) may be used to measure relative distance:
where Ro is the radius of the sphere that contains all good solvents. […] Generally, a value of Ro=7.1 is typical. For RED<1, the molecules are alike and will dissolve. For RED=1, the system will partially dissolve. For RED>1, the system will not dissolve.
A solvent with similar HSP values to these, or a solvent for which Ra (calculated as shown above) is small, or for which RED is less than or equal to 1, would be expected to partially solvate and soften plant leaf cuticle waxes.

[2] = cited from earlier work; for δD: energy from dispersion forces; for δH: energy from hydrogen bonds; for δP: energy from polar intermolecular force
[3] = HSP distance to lower plant wax HSP values (δD=16.0-16.3, δP 0-2.5, δH=0-3.1)
[4] = HSP distance to upper plant wax HSP values (δD=16.0-16.3, δP 0-2.5, δH=0-3.1)

Compound | Ra 2 [1, 3] | Ra 1 [1, 4] | RED 1 [1] | RED 2 [1] | δD [2] | δH [2] | δP [2] | Ra 1 [1] | Ra 2 [1]
O=C(OCc1ccccc1)c1ccccc1 [Benzyl Benzoate] | 8.1 | 10.8 | 1.52 | 1.14 | 20 MPa^1/2 | 5.2 MPa^1/2 | 5.1 MPa^1/2 | – | –
O=C1OCCO1 [Ethylene Carbonate] | 19.6 | 22.6 | 3.19 | 2.76 | – | – | – | – | –
CCCCOCCO [Ethylene Glycol Monobutyl Ether] | 9.6 | 13.3 | 1.88 | 1.35 | 16 MPa^1/2 | 12.3 MPa^1/2 | 5.1 MPa^1/2 | – | –
CC(=O)OCCC(C)C [Iso-Pentyl Acetate] | 4.4 | 7.8 | 1.10 | 0.62 | 15.3 MPa^1/2 | 7 MPa^1/2 | 3.1 MPa^1/2 | – | –
CC1CCCCC1 [Methyl Cyclohexane] | – | – | 0.14 | 0.47 | 16 MPa^1/2 | 1 MPa^1/2 | 0 MPa^1/2 | 1.0 | 3.3
CCCCCCCC/C=C\CCCCCCCC(=O)OC [Methyl Oleate] | 1.9 | 5.9 | 0.83 | 0.27 | 16.2 MPa^1/2 | 4.5 MPa^1/2 | 3.8 MPa^1/2 | – | –
CC1COC(=O)O1 (stereo not shown) [Propylene Carbonate] | 17.2 | 20.1 | 2.83 | 2.42 | 20 MPa^1/2 | 4.1 MPa^1/2 | 18 MPa^1/2 | – | –
CC1=CC=C(C(C)C)CC1 [alpha terpinene] | 2.1 | 4.7 | 0.67 | 0.30 | 16.2 MPa^1/2 | 4.6 MPa^1/2 | 1 MPa^1/2 | – | –
CC1=CC[C@@H](C(C)(C)O)CC1 [alpha terpineol] | 8.4 | 12.1 | 1.71 | 1.18 | 16.1 MPa^1/2 | 11.2 MPa^1/2 | 4.6 MPa^1/2 | – | –
CCCCOC(=O)c1ccccc1 [butyl benzoate] | 5.6 | 9.1 | 1.28 | 0.79 | 18.3 MPa^1/2 | 5.5 MPa^1/2 | 5.6 MPa^1/2 | – | –
OC1CCCCC1 [cyclohexanol] | 10.7 | 14.4 | 2.03 | 1.51 | 17.4 MPa^1/2 | 13.5 MPa^1/2 | 4.1 MPa^1/2 | – | –
CC1=CC(=O)CC(C)(C)C1 [isophorone] | 7.2 | 11.1 | 1.56 | 1.01 | 16.6 MPa^1/2 | 7.4 MPa^1/2 | 8.2 MPa^1/2 | – | –
Cc1cccc(O)c1 [m-Cresol] | 12.2 | 16.0 | 2.25 | 1.71 | 18.5 MPa^1/2 | 13.7 MPa^1/2 | 6.5 MPa^1/2 | – | –
CCCCOC(C)=O [n-Butyl Acetate] | 3.6 | 7.3 | 1.03 | 0.50 | 15.8 MPa^1/2 | 6.3 MPa^1/2 | 3.7 MPa^1/2 | – | –
CCCCOC(=O)CC [n-Butyl Propionate] | – | – | 1.14 | 0.60 | 15.7 MPa^1/2 | 5.9 MPa^1/2 | 5.5 MPa^1/2 | 8.1 | 4.3
CC(=O)OC(C)(C)C [t-Butyl Acetate] | 4.1 | 7.3 | 1.03 | 0.57 | 15 MPa^1/2 | 6 MPa^1/2 | 3.7 MPa^1/2 | – | –
CC(C)(C)O [t-Butyl Alcohol] | 12.1 | 15.6 | 2.20 | 1.70 | 15.2 MPa^1/2 | 14.7 MPa^1/2 | 5.1 MPa^1/2 | – | –
Dimethyl Cyclohexane | 3.2 | 1.1 | 0.16 | 0.45 | 16.1 MPa^1/2 | 1.1 MPa^1/2 | 0 MPa^1/2 | – | –

Continued, in another order:

Ra 2 [1, 3] | Ra 1 [1, 4] | RED 1 [1] | RED 2 [1] | Compound | δD [2] | δH [2] | δP [2] | Ra 1 [1] | Ra 2 [1]
9.3 | 13.2 | 1.85 | 1.31 | CCCCOC(=O)CC(C)O (stereo not shown) [butyl-3-hydroxybutyrate] | 16.10 MPa^1/2 | 11.50 MPa^1/2 | 6.40 MPa^1/2 | – | –
4.0 | 1.6 | 0.23 | 0.56 | C1CCCCC1 [cyclohexane] | 16.8 MPa^1/2 | 0.2 MPa^1/2 | 0 MPa^1/2 | – | –
2.3 | 5.2 | 0.74 | 0.32 | C=C(C)[C@H]1CC=C(C)CC1 [d-limonene] | 17.2 MPa^1/2 | 4.3 MPa^1/2 | 1.8 MPa^1/2 | – | –
2.1 | 5.6 | 0.78 | 0.29 | CC12CCC(CC1)C(C)(C)O2 [eucalyptol] | 17 MPa^1/2 | 3.3 MPa^1/2 | 4 MPa^1/2 | – | –
4.4 | 1.3 | 0.19 | 0.62 | CCCCCCC [heptane] | 15.34 MPa^1/2 | 0 MPa^1/2 | 0 MPa^1/2 | – | –
9.3 | 13.0 | 1.83 | 1.31 | CCCCCCCO [heptanol] | 16.57 MPa^1/2 | 12.27 MPa^1/2 | 4.09 MPa^1/2 | – | –
3.0 | 6.7 | 0.94 | 0.42 | CCCCCCOC(C)=O [hexyl acetate] | 15.95 MPa^1/2 | 5.93 MPa^1/2 | 3.07 MPa^1/2 | – | –
3.8 | 7.5 | 1.06 | 0.54 | C=CC(C)(O)CCC=C(C)C (stereo not shown) [linalool] | 16.5 MPa^1/2 | 6.9 MPa^1/2 | 2.8 MPa^1/2 | – | –
2.4 | 5.9 | 0.83 | 0.34 | CCCCCCCCCCCC(=O)OC [methyl dodecanoate] | 16.54 MPa^1/2 | 5.43 MPa^1/2 | 2.06 MPa^1/2 | – | –
2.8 | 6.4 | 0.91 | 0.40 | CCCCCCCC(=O)OC [methyl octanoate] | 16.58 MPa^1/2 | 5.85 MPa^1/2 | 2.4 MPa^1/2 | – | –
